Assays:
[1] = target: T1, Amine oxidase [flavin-containing] B (Rattus norvegicus, UniProt P19643); type: mitochondria, Sprague-Dawley, Mitochondria
T1 sequence (P19643 whole entry): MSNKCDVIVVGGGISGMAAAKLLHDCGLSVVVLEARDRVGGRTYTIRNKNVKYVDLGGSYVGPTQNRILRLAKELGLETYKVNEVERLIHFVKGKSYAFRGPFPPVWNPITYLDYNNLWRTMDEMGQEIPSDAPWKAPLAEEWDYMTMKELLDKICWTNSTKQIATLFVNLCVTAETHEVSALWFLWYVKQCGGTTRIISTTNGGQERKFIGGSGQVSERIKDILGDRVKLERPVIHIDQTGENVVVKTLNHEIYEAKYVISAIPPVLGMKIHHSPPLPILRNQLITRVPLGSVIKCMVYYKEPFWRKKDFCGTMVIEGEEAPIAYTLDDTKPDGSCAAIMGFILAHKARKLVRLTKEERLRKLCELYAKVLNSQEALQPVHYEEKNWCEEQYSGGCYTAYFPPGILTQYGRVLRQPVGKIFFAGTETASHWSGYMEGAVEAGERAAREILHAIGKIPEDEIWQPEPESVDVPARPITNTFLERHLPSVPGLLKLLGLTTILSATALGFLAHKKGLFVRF
Description: Inhibition of Sprague-Dawley rat brain mitochondria MAOB by continuous spectrophotometric assay

[2] = target: T2, Amine oxidase [flavin-containing] A (Rattus norvegicus, UniProt P21396); type: mitochondria, Sprague-Dawley, Mitochondria
T2 sequence (P21396 whole entry): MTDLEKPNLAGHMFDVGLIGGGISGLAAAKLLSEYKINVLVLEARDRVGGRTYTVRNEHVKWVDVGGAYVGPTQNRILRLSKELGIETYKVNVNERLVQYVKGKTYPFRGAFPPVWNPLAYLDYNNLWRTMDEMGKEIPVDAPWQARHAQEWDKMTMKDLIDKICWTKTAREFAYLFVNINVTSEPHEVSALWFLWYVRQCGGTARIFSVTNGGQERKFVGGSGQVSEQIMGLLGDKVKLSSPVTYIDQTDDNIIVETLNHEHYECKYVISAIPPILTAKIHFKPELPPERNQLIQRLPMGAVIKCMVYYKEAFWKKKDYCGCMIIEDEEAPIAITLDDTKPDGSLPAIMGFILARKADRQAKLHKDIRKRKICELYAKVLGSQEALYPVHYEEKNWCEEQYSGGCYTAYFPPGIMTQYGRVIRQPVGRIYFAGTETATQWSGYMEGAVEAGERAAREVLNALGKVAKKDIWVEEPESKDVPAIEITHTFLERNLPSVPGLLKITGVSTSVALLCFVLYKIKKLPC
Description: Inhibition of Sprague-Dawley rat brain mitochondria MAOA by continuous spectrophotometric assay

| SMILES | IC50 [1] [nM] | IC50 [2] [nM] |
| --- | --- | --- |
| Cc1c(C)c2ccc(Oc3ccccc3)cc2oc1=O | 3240 | – |
| Cc1c(C)c2ccc(S(=O)(=O)Cc3ccccc3)cc2oc1=O | 2750 | 18600 |
| Cc1c(C)c2ccc(SCc3ccccc3)cc2oc1=O | 39.8 | 10000 |
| Cc1c(C)c2ccc(OCS(=O)(=O)c3ccccc3)cc2oc1=O | 871 | 2820 |
| Cc1cc2ccc(OCc3ccccc3)cc2oc1=O | 6.61 | 5500 |
| Cc1c(C)c2ccc(OC[C@@H](O)c3ccccc3)cc2oc1=O | 28.2 | 10000 |
| Cc1c(C)c2ccc(OCCOc3ccccc3)cc2oc1=O | 26.9 | 10200 |
| O=C(OCc1ccc2ccc(=O)oc2c1)c1ccccc1 | 2400 | 9550 |
| Cc1ccc(S(=O)(=O)N(C)c2ccc3c(C)c(C)c(=O)oc3c2)cc1 | – | 4570 |
| Cc1c(C)c2ccc(CCc3ccccc3)cc2oc1=O | 457 | 7080 |
| Cc1cc2ccc(OCc3cccc(Cl)c3)cc2oc1=O | 5.13 | 12600 |
| Cc1c(C)c2ccc(OC/C=C/c3ccccc3)cc2oc1=O | 112 | – |
| Cc1c(C)c2ccc(OC[C@H](O)c3ccccc3)cc2oc1=O | 302 | 3240 |
| Cc1c(C)c2ccc(OCC(O)c3ccccc3)cc2oc1=O (racemic) | 70.8 | 10000 |

Reference: ChEMBL document CHEMBL1145327, “Structural insights into monoamine oxidase inhibitory potency and selectivity of 7-substituted coumarins from ligand- and target-based approaches” (J Med Chem, 2006)
